Results as given in patent US6342219B1 (Board of Regents, The University of Texas System, priority 1999, dated 2002).

Tests used:
VEGFR2 (KDR/Fc) = test: Coprecipitation assay, VEGFR2/Fc; format: binding; settings: 40 ng VEGF, 200 ng receptor/Fc
Experimental: 200 ng of soluble forms of VEGFR1 (Flt-1/Fc) or VEGFR2 (KDR/Fc, R&D Systems, Minneapolis, Minn.) were added for a total volume of 50 μl and incubated for 2 hrs. The receptor/Fc constructs were precipitated using Protein A-sepharose beads and the resulting precipitate was washed 4 times with binding buffer.
Reducing sample buffer was added to the pellet and supernatant of each reaction and both were analyzed by 12% SDS-PAGE and transferred to PVDF membranes. […] The soluble receptor/Fc constructs were also detected by using peroxidase-conjugated goat anti-human Fc (Kirkegaard & Perry Laboratories, Inc.)
The receptor/Fc constructs were precipitated by incubation with Protein A sepharose beads. The precipitate was washed and resuspended in reducing sample buffer and separated by 12% SDS-PAGE and transferred to PVDF.

[1] = tested on: cancer patients having progressive disease; settings: patients having progressive disease before treatment; cited from earlier work
β-glucuronidase (GUS) = molecular target: T1, β-glucuronidase (GUS) (Escherichia coli, UniProt P05804); test: Enzymatic activity of the GUS portion; format: biochemical, E. coli
T1 construct: made in house; host or cells: E. coli M15 cells
T1 sequence (P05804 whole entry): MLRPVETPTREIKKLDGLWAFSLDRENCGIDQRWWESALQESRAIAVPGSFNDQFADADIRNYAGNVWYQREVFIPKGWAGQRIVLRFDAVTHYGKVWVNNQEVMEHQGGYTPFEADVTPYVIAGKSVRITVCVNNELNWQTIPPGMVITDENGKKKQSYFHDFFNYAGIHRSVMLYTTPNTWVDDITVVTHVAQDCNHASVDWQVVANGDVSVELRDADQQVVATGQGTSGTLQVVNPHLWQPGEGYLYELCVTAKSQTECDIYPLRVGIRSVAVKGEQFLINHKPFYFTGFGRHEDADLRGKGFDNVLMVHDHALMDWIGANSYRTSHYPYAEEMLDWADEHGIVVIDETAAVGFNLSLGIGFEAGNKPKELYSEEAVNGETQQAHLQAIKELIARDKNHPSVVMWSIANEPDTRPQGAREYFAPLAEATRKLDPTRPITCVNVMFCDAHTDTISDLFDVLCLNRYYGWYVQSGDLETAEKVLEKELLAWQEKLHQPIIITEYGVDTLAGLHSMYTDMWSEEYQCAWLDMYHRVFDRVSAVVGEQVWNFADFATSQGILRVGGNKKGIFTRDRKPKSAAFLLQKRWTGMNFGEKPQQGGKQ
Text: The 6-His GUS was pure based upon SDS-PAGE, where it ran as a single band of 75 kDa band. On gel filtration columns, the 6-His GUS runs as a tetramer of about 300 kDa.
The biological activity of each component of the 2C3-GUS conjugate was confirmed.

[2] = Blood clearance of radioiodinated 2C3-GUS; format: in vivo; settings: mice, intravenous injection, 125I-labelled
Text: 2C3-GUS was radioiodinated with ^125I to a specific activity of 5×10^6 cpm/μg.

[3] = tested on: human NCI-H358 NSCLC tumors; format: in vivo, SCID mice
VEGFR1 = VEGFR1 (Homo sapiens, UniProt P17948); settings: read-out: Kd of VEGF binding to VEGFR1; Terman et al., 1994; cited from earlier work
Chain of VEGFR1 (P17948 27-1338): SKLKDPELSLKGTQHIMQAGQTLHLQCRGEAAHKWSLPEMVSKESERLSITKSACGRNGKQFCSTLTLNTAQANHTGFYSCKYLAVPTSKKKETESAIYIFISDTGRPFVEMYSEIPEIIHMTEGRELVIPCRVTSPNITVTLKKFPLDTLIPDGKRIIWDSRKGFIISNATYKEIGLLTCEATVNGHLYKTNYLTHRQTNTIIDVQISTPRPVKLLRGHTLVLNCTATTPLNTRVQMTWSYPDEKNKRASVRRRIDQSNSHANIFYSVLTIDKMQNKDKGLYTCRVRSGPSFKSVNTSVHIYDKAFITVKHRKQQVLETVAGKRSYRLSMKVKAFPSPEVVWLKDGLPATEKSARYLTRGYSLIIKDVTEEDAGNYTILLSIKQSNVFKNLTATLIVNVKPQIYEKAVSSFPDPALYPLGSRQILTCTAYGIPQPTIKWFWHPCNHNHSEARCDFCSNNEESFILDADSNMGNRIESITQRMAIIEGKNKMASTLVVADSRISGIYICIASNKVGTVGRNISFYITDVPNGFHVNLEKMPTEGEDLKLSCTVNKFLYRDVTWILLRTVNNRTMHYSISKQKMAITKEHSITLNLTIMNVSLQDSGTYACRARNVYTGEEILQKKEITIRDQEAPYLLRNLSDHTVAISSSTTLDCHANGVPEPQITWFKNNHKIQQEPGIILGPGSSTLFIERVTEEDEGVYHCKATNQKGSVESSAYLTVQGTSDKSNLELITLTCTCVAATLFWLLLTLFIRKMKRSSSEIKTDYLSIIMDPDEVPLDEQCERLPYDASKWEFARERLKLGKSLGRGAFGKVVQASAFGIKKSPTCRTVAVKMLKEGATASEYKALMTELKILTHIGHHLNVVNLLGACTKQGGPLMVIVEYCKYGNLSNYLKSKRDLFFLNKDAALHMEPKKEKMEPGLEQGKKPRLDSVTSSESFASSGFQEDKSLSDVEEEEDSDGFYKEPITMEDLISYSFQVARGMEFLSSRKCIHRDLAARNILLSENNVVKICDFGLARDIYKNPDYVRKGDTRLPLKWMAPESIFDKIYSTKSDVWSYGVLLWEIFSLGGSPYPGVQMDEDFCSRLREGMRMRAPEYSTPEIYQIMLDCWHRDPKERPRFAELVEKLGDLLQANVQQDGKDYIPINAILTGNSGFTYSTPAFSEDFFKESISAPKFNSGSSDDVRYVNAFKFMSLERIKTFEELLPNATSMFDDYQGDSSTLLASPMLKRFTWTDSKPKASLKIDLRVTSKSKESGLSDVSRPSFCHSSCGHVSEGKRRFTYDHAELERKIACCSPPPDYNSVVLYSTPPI

Compound: 2C3 F(ab′)2: F(ab′)2 of 2C3
- Blocking of VEGF binding to VEGFR2/Fc in solution (VEGFR2 (KDR/Fc)): blocked

Compound: NC(=O)c1nnn(Cc2cc(Cl)c(C(=O)c3ccc(Cl)cc3)c(Cl)c2)c1N [CAI, carboxyamidotriazole]
- Disease stabilization, share of cancer patients [1]: 49%

Compound: 2C3-GUS [Clone 2C3-GUS]
- Enzymatic activity of the GUS portion (β-glucuronidase (GUS)): retained enzymatic activity
- t½ α [2]: about 6 hours
- t½ β [2]: about 25 hours
- Localization after i.v. injection ([3]; SCID mice bearing subcutaneous NCI-H358): specifically localized to tumor vasculature and surrounding tumor stroma
- Staining of normal tissues ([3]; mouse, in vivo): unstained
- Time of maximal localization after injection ([3]; mouse, in vivo, sc): 24 to 48 h

Compound: VEGF
- Kd (VEGFR1): 0.015 to 0.1 nM
